According to patent US5470883A (priority 1994, dated 1995):
Counter-ions that a name gives are not always drawn. Like-named read-outs stand apart in the source and are kept apart here.

Key:
[1] = tested on: epinephrine vasoconstriction, central artery of the rabbit ear; assay: Transcutaneous oxygen monitor assessment of distal peripheral oxygen tension after epinephrine injection around the central artery of the rabbit ear; type: in vivo, New Zealand adult white rabbits; conditions: for effect of pretreatment on epinephrine-induced fall in peripheral blood flow / vasoconstriction: pretreatment two days, then epinephrine, estradiol 0.1 mg/kg/day, tamoxifen 2.0 mg/kg/day
Procedure: A study utilizing 18 New Zealand adult white rabbits was performed. […] This was injected through a 27 gauge needle directly surrounding the central artery of the rabbit ear. Distally peripheral tissue oxygen tension was assessed utilizing a precalibrated transcutaneous oxygen monitor. Measurements were taken prior to injection to maintenance of a steady state. If a steady state was not reached the experiment was discontinued and retried at a later time. Post-injection measurements were taken until the return to baseline levels or up to two hours post-injection. Measurements were taken at five minute intervals preinjection and at three minute intervals post-injection. Control injections utilized 0.1 cc. of intravenous saline solution.
In the second phase, six rabbits were used. The animals were pretreated with intravenous injections of estradiol (0.1 mg/kg/day) for two days.
In phase three, animals from the second group were treated with estradiol and tamoxifen was added (2.0 mg/kg/day) for two days after allowing three weeks for the original estradiol to wash out. Another group of six animals was pretreated with tamoxifen alone (2.0 mg/kg/day) for two days.

[2] = tested on: renal cortical necrosis; conditions: induced by estrogen plus vasopression; cited from earlier work
[3] = mild to moderate renal failure; cited from earlier work
[4] = 100 to 200 times the recommended daily dose; cited from earlier work
[5] = humans; cited from earlier work
[6] = tested on: estrogen-dependent breast cancer cell cultures; conditions: cited from earlier work
[7] = tested on: tumor cultures without estrogen receptors; conditions: cited from earlier work
[8] = tested on: breast cancer; conditions: cited from earlier work
[9] = tested on: perfused rat mesentary; conditions: cited from earlier work
[10] = cited from earlier work
[11] = tested on: mammary carcinoma in rats induced by DMBA; conditions: cited from earlier work
[12] = single oral dose approximately 0.3 mg/kg

SMILES: CNC[C@H](O)c1ccc(O)c(O)c1 [epinephrine]
- decreased blood flow, % of the preinjection level ([1]; epinephrine 0.1 cc, 1:50,000): 50%
- tissue necrosis ([1]; epinephrine 0.1 cc, 1:50,000): In no case was there any tissue necrosis

SMILES: C[C@]12CC[C@@H]3c4ccc(O)cc4CC[C@H]3[C@@H]1CC[C@@H]2O [estradiol]
- effect of pretreatment on epinephrine-induced fall in peripheral blood flow / vasoconstriction [1]: statistically similar fall in the peripheral blood flow as compared to those animals treated with epinephrine alone

SMILES: CC/C(=C(\c1ccccc1)c1ccc(OCCN(C)C)cc1)c1ccccc1 [tamoxifen citrate, (Z)2-[4-(1,2-diphenyl-1-butenyl)phenoxy]-N, N-dimethylethanamine 2-hydroxy-1,2,3-propranetricarboxylate (1:1)]
- effect on development of renal cortical necrosis [2]: have an effect on the development of renal cortical necrosis
- dose adjustment in renal failure [3]: dose adjustments are not needed in mild to moderate renal failure
- overdose toxicity [4]: respiratory difficulties and convulsions
- overdose cases [5]: no cases of tamoxifen citrate overdose have been reported in humans
- cell reproduction [6]: inhibit cell reproduction
- effect in tumor cultures [7]: no significant effect
- anti-tumor effect at higher dose ([8]; 40 mg per day, metastatic breast cancer to the lung): higher anti-tumor effect
- improvement at higher daily doses ([8]; 80 mg daily): have not generally resulted in greater improvement
- delay of recurrence ([8]; following total mastectomy and axillary dissection or segmental mastectomy, axillary dissection, and breast radiation, axillary node-negative breast cancer): effective in delaying the reoccurence
- delay of recurrence ([8]; following total mastectomy and axillary dissection, post-menopausal women): effective in delaying reoccurence
- calcium antagonism [9]: calcium antagonist in perfused rat mesentary
- unchanged drug and hydroxylated metabolites, share of total excreted ([10]; excreted mainly as conjugates): 30%
- distribution half life ([10]; human, in vivo): 7 to 14 h
- elimination half-life ([10]; human, in vivo): greater than 7 days
- excretion in urine ([10]; in vivo): only small amounts are excreted in the urine
- metabolism ([10]; in vivo): metabolised in the liver
- absorption from the gastrointestinal tract ([10]; oral): well-absorbed from the gastrointestinal tract
- excretion of radioactivity in the feces ([10]; radiolabeled tamoxifen citrate, person): most of the radioactivity is slowly excreted in the feces with only small amounts appearing in the urine
- initial half-life [10, 12]: 7 to 14 h
- peak blood level of total radioactivity [10, 12]: 0.06-0.14 micrograms/mL
- secondary peaks, time [10, 12]: four
- time of peak blood level of total radioactivity [10, 12]: 4 to 7 h
- effect of pretreatment on epinephrine-induced fall in peripheral blood flow / vasoconstriction [1]: completely reversed the vasoconstrictive effects of epinephrine
- effect of pretreatment on epinephrine-induced fall in peripheral blood flow / vasoconstriction ([1]; listed as tamoxifen (Nolvadex)): completely inhibited
- frequency of tumor development ([11]; administered with DMBA): decreases the frequency of tumor development
- effect on DMBA-induced mammary carcinoma ([11]; rats): inhibit or reverse mammary carcinoma in rats
